We go through one compound from patent US7192746B2, “α-Isomaltosyltransferase, process for producing the same and use thereof” (Kabushiki Kaisha Hayashibara Seibutsu Kagaku Kenkyujo, priority 2000, dated 2007).

Assay [1] deals with α-isomaltosyl-transferring enzyme from Bacillus globisporus C11. Nature of the assay: Formation of cyclotetrasaccharide from components A, B and C. As to conditions: Enzyme of Strain C11, 35° C., 8 hours. Format: biochemical. As to the method:
(§1) Using a purified α-isomaltosyl-transferring enzyme, the formation of cyclotetrasaccharide from the above-identified components A, B and C was examined as follows: One percent (w/v) of an aqueous solution (pH 6.0) of the component A (3-O-α-isomaltosylpanose represented by Chemical Formula 1), the component B (4-O-α-isomaltosylpanose represented by Chemical Formula 2), or the component C (1-O-α-isomaltosyl-β-panoside represented by Chemical Formula 3) was prepared into a substrate solution. To each of the resulting solutions was added one unit/g substrate of a purified specimen of α-isomaltosyl-transferring enzyme from Bacillus globisporus C9 obtained by the method in Experiment 4, or Bacillus globisporus C11 obtained by the method in Experiment 7, followed by enzymatic reaction at 35° C. for eight hours. Thereafter, the resulting mixtures were analyzed on HPLC for saccharide composition (%).

In assay [2] the test system is α-isomaltosyl-transferring enzyme from Bacillus globisporus C9. The assay is described as above. Format: biochemical. Conditions: Enzyme of Strain C9, 35° C., 8 hours. As to the method:
as §1

The mark [3] stands for this setting: 1% (w/v) substrate, pH 6.0, 1 unit/g substrate.

`OC[C@H]1O[C@H](OC[C@H]2O[C@H](O[C@H]3[C@H](O)[C@@H](O)[C@@H](OC[C@H]4O[C@H](O[C@H]5[C@H](O)[C@@H](O)C(O)O[C@@H]5CO)[C@H](O)[C@@H](O)[C@@H]4O)O[C@@H]3CO)[C@H](O)[C@@H](O)[C@@H]2O)[C@H](O)[C@@H](O)[C@@H]1O` (stereo partly drawn) [Component B, 4-O-α-isomaltosylpanose]: the “Saccharide composition, remaining Substrate” value in assay [1] (setting [3]) was 77.0%. Also, in assay [1], the “Saccharide composition, Cyclotetrasaccharide” value worked out at 5.0%; the “Saccharide composition, Glucose” value is given as 0.6%; the “Saccharide composition, Others” value stood at 17.4%. Moreover, the “Saccharide composition, remaining Substrate” value in assay [2] (setting [3]) is 77.1%. In assay [2], the “Saccharide composition, Cyclotetrasaccharide” value turned out to be 5.1%; the “Saccharide composition, Glucose” value was 0.7%; the “Saccharide composition, Others” value was found to be 17.1%.
